For this experiment, the system named is Diet-induced obesity (DIO) mice. Put plainly: Blood glucose level in DIO mice. The format is in vivo, C57BL/6J mice.

For one compound, blood glucose level and blood sugar level results are on record in patent US20190022061A1 (priority 2017, published 2019).

Method: In this study, RAASUS products (KH103, KHJ and KHGD) were dosed three times a day (T ID) for 99 days. […] On day 63 post dosing, OGTT test were conducted for all of the mice. […] On day −5, day 14, day 28 the non-fast blood was collected to determine the non-fast BG, insulin, TG, HDL-C, LDL-C and TCHO level. On day 42, day 56, day 70, day 84 the fast blood was collected to determine the fast BG, insulin, TG, HDL-C, LDL-C and TCHO level.
Male C57BL/6J mice (Shanghai Laboratory Animal Center, Shanghai, China, 5 weeks) were fed with high fat diet (D12492i, Research Diet, New Brunswick, N.J.) (caloric contribution: protein, 20%; fat, 60%; carbohydrates, 20%) ad lib for 21 weeks for the induction of obesity.
The mice of Group 3, Group 4 were orally dosed with KH103, KHJ respectively three times per day at 9:00, 13:00, 17:00 and free drinl<KH103, KHJ respectively at day and night from Day O to Day 99. […]
The random blood glucose, insulin level were measured using tailing nick once per two weeks on day −5, day 14, day 28.
The fast blood glucose (fast from 17:30 to 8:00 AM) insulin level were measured using tailing nick once per two weeks on day 42, day 56, day 70, day 84. […]
Blood Glucose: Blood glucose was determined using the Glucosemeter (Johnson and Johnson) and the Glucose Test Strips (Johnson and Johnson).

Consider `CC(C)c1c(C(=O)Nc2ccccc2)c(-c2ccccc2)c(-c2ccc(F)cc2)n1CC[C@@H](O)C[C@@H](O)CC(=O)O` [Atorvastatin], for which, under “DIO mice, po three times a day, compared with the vehicle groups, 12 weeks post dose”, the blood glucose level result was “significantly decrease”. In addition, for the setting “animal study, diabetics, general statement”, the blood sugar level entry is “lower down”.
